Experimental data: PMC7070575, “Novel Blood–Brain Barrier Shuttle Peptides Discovered through the Phage Display Method” (Molecules, 2020)
Ends that are not written are not given here.

How the values were obtained:
[1] = test system: primary rat in vitro BBB model (primary rat endothelial cells co-cultured with primary rat glial cells); settings: for permeability coefficient (Pe) through in vitro BBB: pH 7.4
Description: (§1) The permeability of peptides was assessed using a primary rat in vitro BBB model. […] Transendothelial electrical resistance (TEER) measurements were used to measure the resistance of tight junctions in our BBB model. For our experiments, we used only inserts with the TEER value ≥320 ± 20 Ώ cm^−2 that corresponded to an intact in vitro BBB model. Alternatively, the integrity of the in vitro rat BBB model was assessed by measuring the permeability of the paracellular compound Lucifer Yellow (LY). Lucifer Yellow was added to the well with the peptides.
(§2) To test the permeability of selected peptides across in vitro BBB model, peptide transport to the abluminal compartment was quantified by ultra-high-performance liquid chromatography/mass spectrometry (UHPLC–MS/MS) method.
(§3) As a negative control, we performed the permeability experiments with N–C reversed sequence peptides: [sequence] and [sequence].
(§4) To test the effect of temperature on the transport of peptides across BBB, endothelial cells were incubated with peptides at 4°C to reduce cell metabolism which slows down endocytosis.
(§5) Briefly, 4 Sprague–Dawley rats (200–250 g, 6 months old) were euthanized, and the whole brains were removed. Under sterile conditions, the brainstem and cerebellum were dissected, and the midbrain, white matter, and choroid plexus were removed. The remaining cortical tissue was cleaned from meninges on dry Whatman paper. The tissue was homogenized on ice in DMEM-F12 (PAA laboratories GmbH, Germany). The brain homogenate was centrifuged at 800× g for 10 min at 4 °C. The supernatant was aspirated, and the pellet was resuspended in pre-warmed digestion mix containing collagenase/dispase (Roche Diagnostics, Indianapolis, IN, USA) and DNase I (Sigma–Aldrich, St. Louis, MO, USA). The tissue was incubated with a prepared digestion mix at 37 °C for 30 min with gentle shaking. Digested tissue was centrifuged at 800× g for 10 min at 4 °C, and the pellet was resuspended in 20% bovine serum albumin (BSA, Sigma–Aldrich, St. Louis, MO). The tissue was centrifuged at 1500× g for 15 min at 4 °C to obtain pellet containing microvessels with a fraction of myelin and BSA on the top, which was centrifuged again. The microvessels were pooled and resuspended in pre-warmed digestion mix and digested for 15 min at 37 °C. The microvessels pellet was again centrifuged at 800× g for 10 min at 4 °C and washed with culture medium containing the serum. The microvessels were cultured in DMEM-F12 medium (PAA Laboratories GmbH, Germany) containing 15% plasma-derived serum (PDS) (First Link, UK), 2 mM L-glutamine (GE Healthcare, UK), BME vitamins (Sigma–Aldrich, St. Louis, MO), heparin (Sigma–Aldrich, St. Louis, MO) and 3 µM puromycine (Sigma–Aldrich, St. Louis, MO). After 7 days, cells were seeded on the upper chamber (apical compartment) of Transwell insert with a 0.4 µm pore size (Becton Dickinson, New Jersey, USA) pre-coated with 10 µg/cm^2 collagen type IV (Sigma–Aldrich, St. Louis, MO) and 5 µg/cm^2 fibronectin (Sigma–Aldrich, St. Louis, MO).

[2] = test system: primary rat in vitro BBB model; test: Permeability of endothelium to Lucifer Yellow (BBB integrity); format: in vitro ADME; settings: 10 µM Lucifer Yellow apical, added with the peptides; Ringer-HEPES pH 7.4; 37 °C; 5-60 min; fluorescence 428/536 nm
Description: All incubations were performed at 37 °C.

[3] = in vitro; settings: Sprague-Dawley, rat, pH 7.4
Description: as §1, §2, §3, §4, §5

| permeability at 4 °C (37 °C: 100%) [1] [%] | permeability reduced at 4 °C [1] [%] | permeability coefficient (Pe) through in vitro BBB [1] [×10⁻⁶ cm/s] | endothelial permeability coefficient (Pe) of LY [2] | Papp A→B [3] [×10⁻⁶ cm/s] | Substance |
| --- | --- | --- | --- | --- | --- |
| 79 | 20.5 | 0.33 |  |  | GLHTSATNLYLH |
|  |  | 0.75 |  |  | HLYLNTASTHLG |
|  |  |  | around 11 × 10^−6 cm/s |  | Lucifer Yellow |
| 69 | 30.5 |  |  | 1.5 | VAARTGEIYVPW |
|  |  |  |  | 0.5 | WPVYIEGTRAAV |
